Earlier results in US9636287B2, “Primecoat compositions for proteinaceous substrates and methods of priming proteinaceous substrates therewith” (Mad River Science, priority 2012, dated 2017).
One block for each compound: values may come before it.

Test system: EpiDerm Skin Model (normal, human-derived epidermal keratinocytes, NHEK)
Details: MatTek Corporation general guideline groupings, example materials

Compound: CCCCCCCCCCCCOS(=O)(=O)[O-].[Na+] [1% Sodium Dodecyl Sulfate, Sodium Dodecyl Sulfate]
ET-50 (hrs): 0.5-4^ hrs | Expected In vivo Irritancy: Moderate

Compound: O=[N+]([O-])O [Conc. Nitric Acid, Nitric Acid]
ET-50: <0.5 h | Expected In vivo Irritancy: Severe, probably corrosive

ET-50: 4 to 12 h
Compound: Triton X-100 [1% Triton X-100]
Expected In vivo Irritancy: Moderate to Mild
